1 substance from article PMC6213970, “Identification of Enolase as the Target of 2-Aminothiazoles in Mycobacterium tuberculosis” (Frontiers in Microbiology, 2018) can be followed below.

The test addresses T1, human α-enolase (Homo sapiens, UniProt P06733).
T1 construct: gene ENO1; commercial enzyme (Sigma)
Description: pyruvate kinase-luciferase coupled assay (luminescence). In kind it is biochemical. The note with it: 100 μM compound; 2-PG 0.2 mM (figure legend) or 0.5 mM (methods); 1 mM ADP, 10 mM MgSO4, 50 mM HEPES pH 7.0, 37°C, 1% DMSO.

T1 sequence (P06733 2-434): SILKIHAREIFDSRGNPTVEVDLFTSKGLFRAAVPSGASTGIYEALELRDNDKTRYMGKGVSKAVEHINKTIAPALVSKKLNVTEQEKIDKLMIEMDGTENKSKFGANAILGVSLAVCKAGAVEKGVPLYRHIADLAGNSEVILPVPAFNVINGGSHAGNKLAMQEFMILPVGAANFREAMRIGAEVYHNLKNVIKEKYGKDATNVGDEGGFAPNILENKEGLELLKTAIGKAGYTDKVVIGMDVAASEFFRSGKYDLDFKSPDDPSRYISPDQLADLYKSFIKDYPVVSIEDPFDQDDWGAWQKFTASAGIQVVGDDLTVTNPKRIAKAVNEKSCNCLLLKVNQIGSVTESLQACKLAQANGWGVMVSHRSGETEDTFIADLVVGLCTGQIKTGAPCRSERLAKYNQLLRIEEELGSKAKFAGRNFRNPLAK

By % inhibition is commonly meant the percentage by which the read-out fell short of the control. A lower % inhibition goes with a response near the control. On to IDR-0106963, for which the “% inhibition at 100 μM” value was > 90%.
